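Following 48 hours of exposure in 96-well plates, responses at five concentrations were used to interpolate endpoints linearly. GI50 marks 50% less growth.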 Active and inactive are the calls of the source. Cut-off read from the data, not from the text of the source: active = GI50 up to about 1.1 µM and inactive = higher.
Assays:
Experiment in all cases: NCI anticancer screen, dose series, 48 h
[1] = tested on: HCC 2998
[2] = tested on: TK-10
[3] = tested on: KM12
[4] = tested on: SF-295
[5] = tested on: SK-OV-3
[6] = tested on: SR
[7] = tested on: SN12C
[8] = tested on: NCI-H522
[9] = tested on: UO-31
[10] = tested on: SK-MEL-28
[11] = tested on: A549
[12] = tested on: K562
[13] = tested on: SW-620
[14] = tested on: ACHN
[15] = tested on: UACC-257
[16] = tested on: M14
[17] = tested on: MCF7
[18] = tested on: MDA-MB-231
[19] = tested on: MDA-MB-435
[20] = tested on: PC-3

Measured: GI50

CCOC(=O)c1cn2c([nH]c3ccccc32)c(C#N)c1=O
inactive: [1] > 100 µM | [2] > 100 µM | [3] > 100 µM | [4] > 100 µM | [5] > 100 µM | [6] > 100 µM | [7] > 100 µM | [8] > 100 µM | [9] 98.2 µM | [10] > 100 µM | [11] > 100 µM | [12] > 100 µM | [13] 17.1 µM | [14] > 100 µM | [15] > 100 µM | [16] > 100 µM

CC(=O)Nc1ccc2c(c1)[nH]c(=O)c1cc(Cl)ccc12
inactive: [17] 4.48 µM | [1] 38.5 µM | [18] 44.8 µM | [2] 15.2 µM | [3] 26.5 µM | [4] 35.1 µM | [5] 34.8 µM | [6] 3.2 µM | [7] 43.5 µM | [19] 23.4 µM | [8] 27.1 µM | [9] 18.2 µM | [10] 38.8 µM | [11] 5.61 µM | [12] 34.1 µM | [13] 27.7 µM | [14] 23.9 µM | [15] 20.3 µM | [16] 36.5 µM

Nc1ccc(C(=O)/C=C/c2ccccc2O)cc1
inactive: [1] > 100 µM | [2] > 100 µM | [3] > 100 µM | [4] > 100 µM | [5] > 100 µM | [6] > 100 µM | [7] > 100 µM | [8] > 100 µM | [9] > 100 µM | [10] > 100 µM | [11] > 100 µM | [12] > 100 µM | [13] > 100 µM | [14] > 100 µM | [15] > 100 µM | [16] > 100 µM

CC(=O)CC(=O)ON(C)C(C)=O
inactive: [1] > 100 µM | [2] > 100 µM | [3] > 100 µM | [4] > 100 µM | [5] > 100 µM | [6] > 100 µM | [7] > 100 µM | [8] > 100 µM | [9] > 100 µM | [10] > 100 µM | [11] > 100 µM | [12] > 100 µM | [13] > 100 µM | [14] > 100 µM | [15] 7.69 µM | [16] > 100 µM

Cc1[nH]c2ccccc2c1C1Cc2ccccc2N1C(=O)/C=C/C=C/c1ccccc1 (stereo not given)
inactive: [1] > 100 µM | [2] > 100 µM | [3] > 100 µM | [4] > 100 µM | [5] > 100 µM | [6] > 100 µM | [7] > 100 µM | [8] > 100 µM | [9] > 100 µM | [10] > 100 µM | [11] > 100 µM | [12] > 100 µM | [13] > 100 µM | [14] > 100 µM | [15] 33 µM | [16] > 100 µM

COc1c(N2CCCCC2)c2c(=O)c3ccccc3oc2c2c3ccccc3n(C)c12
inactive: [17] 29.7 µM | [1] > 100 µM | [18] > 100 µM | [2] > 100 µM | [3] > 100 µM | [4] > 100 µM | [5] > 100 µM | [7] 47.6 µM | [19] > 100 µM | [20] > 100 µM | [9] > 100 µM | [10] > 100 µM | [11] > 100 µM | [12] 58.2 µM | [13] > 100 µM | [14] > 100 µM | [15] > 100 µM | [16] > 100 µM

CC1CCC(C(C)C)C(OC(=O)NCn2cc(-c3ccccc3)nn2)C1 (stereo not given)
inactive: [17] > 100 µM | [1] 85.1 µM | [18] > 100 µM | [2] 75.5 µM | [3] > 100 µM | [4] > 100 µM | [6] > 100 µM | [7] > 100 µM | [8] > 100 µM | [20] > 100 µM | [10] > 100 µM | [11] > 100 µM | [12] > 100 µM | [13] > 100 µM | [14] > 100 µM | [15] > 100 µM | [16] > 100 µM

COc1cc(OC)cc(Oc2nc3ccccc3nc2C(=O)O)c1
inactive: [1] > 100 µM | [18] > 100 µM | [2] > 100 µM | [3] > 100 µM | [4] > 100 µM | [5] > 100 µM | [6] > 100 µM | [19] > 100 µM | [8] > 100 µM | [20] > 100 µM | [9] > 100 µM | [10] > 100 µM | [11] > 100 µM | [12] > 100 µM | [13] > 100 µM | [14] > 100 µM | [15] > 100 µM | [16] > 100 µM

N/C1=C/C(=O)NC(=O)c2c(c3ccccc3oc2=O)C1
inactive: [1] > 100 µM | [18] > 100 µM | [2] > 100 µM | [3] > 100 µM | [6] > 100 µM | [7] > 100 µM | [19] > 100 µM | [8] > 100 µM | [20] > 100 µM | [9] > 100 µM | [10] > 100 µM | [11] > 100 µM | [12] > 100 µM | [13] > 100 µM | [14] > 100 µM | [15] > 100 µM | [16] > 100 µM

CC[C@@]1(C)CCC2c3ccc(O)cc3CC[C@H]2C1C (stereo not given in full)
inactive: [17] 15.1 µM | [1] 13.7 µM | [2] 19.1 µM | [3] 15.8 µM | [4] 18.8 µM | [6] 14.3 µM | [7] 18.1 µM | [19] 15.6 µM | [8] 19.3 µM | [20] 19.8 µM | [9] 16.7 µM | [10] 17.8 µM | [11] 17.9 µM | [12] 8.75 µM | [13] 17 µM | [14] 18.2 µM | [15] 15.7 µM | [16] 15.7 µM

COc1nc(O)nc2c1C(c1ccc([N+](=O)[O-])cc1)c1c(OC)nc(O)nc1O2
inactive: [18] > 100 µM | [2] > 100 µM | [3] > 100 µM | [4] > 100 µM | [5] > 100 µM | [7] > 100 µM | [19] > 100 µM | [8] > 100 µM | [20] > 100 µM | [9] > 100 µM | [10] > 100 µM | [11] > 100 µM | [13] > 100 µM | [14] > 100 µM | [15] > 100 µM | [16] > 100 µM

O=CNNC(=O)Nc1cccc2ccccc12
inactive: [17] > 100 µM | [1] > 100 µM | [18] > 100 µM | [2] > 100 µM | [3] > 100 µM | [4] > 100 µM | [5] > 100 µM | [6] > 100 µM | [7] > 100 µM | [19] > 100 µM | [9] > 100 µM | [10] > 100 µM | [11] > 100 µM | [12] > 100 µM | [13] > 100 µM | [14] > 100 µM | [15] > 100 µM | [16] > 100 µM
